These results are taken from US9359372B2, “Hexahydrodibenzo[a,g]quinolizine compound, preparation method thereof, pharmaceutical composition and use thereof” (SHANGHAI INSTITUTE OF MATERIA MEDICA, CHINESE ACADEMY OF …, priority 2011, dated 2016).

Assay [1] addresses T1, dopamine D2 receptor (Homo sapiens (Human), UniProt P14416). In words: Inhibition property on dopamine D2 receptor, cAMP detection in CHO cells stably expressing D2 receptor. The assay is classed as cell-based. The note with it: 10 μM Forskoline and 10 μM dopamine, read-out: D2 receptor Antagonist IC50. The protocol: 2. Determination of the Inhibition Property of Hexahydrodibenzo[a,g]Quinolizine Compound of General Formula I and Derivatives Thereof on Dopamine D2 Receptor.
(1) The Experimental Method
Each medicament was dissolved in serum-free F12 culture medium containing 100 μM of IBMX. CHO cells which can stably express D2 receptor were pre-incubated at 37° C. for 10 min, and then 10 μM Forskoline and 10 μM Dopanie were added at the same time to react for 10 min. 100 μL, of pre-cooled 1 M of HClO4 was added and the reaction was terminated at 4° C. for 1 hour. 20 μL of 2 M K2CO3 was added to neutralize the reaction. […] A certain amount of the supernatant was taken for cAMP detection.

Assay [2] addresses D2 dopamine receptor (Rattus norvegicus (Rat), UniProt P61169). Description: Affinity on dopamine D2 receptor, competition with [3H] Spiperone. Type of assay: binding. Further details: D2 receptor inhibition ratio (%): concentration or dose not given beside the values. The note with it: for affinity on dopamine D2 receptor (in words): summary of the tables. The protocol: (§1) (1). Determination of the Affinity of Hexahydrodibenzo[a,g]Quinolizine Compound of General Formula I and Derivatives Thereof on Dopamine D1, Dopamine D2, 5-HT1A, and 5-HT2A Receptor.
(§2) 1) The Experimental Method
(§3) Different concentrations (10^−5 M-10^−11 M) of the compound of the invention and corresponding isotope receptor ligand as well as receptor protein were loaded into the reaction tube and incubated in 30° C. water bath for 60 minutes. The reaction was terminated in a refrigerator. The reaction mixture was put in a Millipore filter (millipore) cell sample collector, filtered through suction filtration using GF/C glass fiber filter paper, and dried. The resulting sample was placed into 0.5 mL tube. 500 μL liquid scintillation fluid was added and intensity of radioactivity was determined by counting.
(§4) (1) Construction of receptor and materials for cell culture: Escherichia coli. DH5α strain; insect virus transfer vector pVL1393 plasmid; BaculoGold linear Chinese baculovirus DNA, purchased from ParMingen company; mkD1RcDNA; rD2R cDNA; various restriction endonucleases, TaqDNA polymerase, T4 ligase, etc., LB medium; insect cell culture TNM-FH.
(§5) (2) the Experimental Materials for Receptor Binding
(§6) Firstly, the above […] are dissolved in DMSO and then diluted with double distilled water to the appropriate concentration (10^−5 M-10^−11 M).
(§7) (+) Butaclamo purchased from RBI company, GF/C glass fiber filter paper purchased from Whatman Co., scintillation fluid (dopamine D1, D2 receptors)/liposoluble scintillation fluid (5-HT1A, 5-HT2A receptor), Beckman LS-6500 multi-function liquid scintillation counter.

The target in assay [3] is dopamine D1 receptor (Macaca mulatta (Rhesus macaque), UniProt O77680). In words: Affinity on dopamine D1 receptor, competition with [3H] SCH23390. The assay is classed as binding. Further details: D1 receptor inhibition ratio (%): concentration or dose not given beside the values. The note with it: for affinity on dopamine D1 receptor (in words): summary of the tables. The protocol: as §1, §2, §3, §4, §5, §6, §7

For assay [4], the target named is 5-HT1A receptor (Homo sapiens (Human), UniProt P08908). Description: Affinity on 5-HT1A receptor, competition with [3H] 8-OH-DPAT. Type of assay: binding. The protocol: as §1, §2, §3, §5
8-OH-DPAT; 5-HT1A receptor protein expressed in HEK-293 cells;
as §6, §7

For assay [5], the target named is 5-HT2A receptor (Homo sapiens (Human), UniProt P28223). In words: Affinity on 5-HT2A receptor, competition with [3H]-Ketanserin. Type of assay: binding. The method, then:
as §1, §2, §3, §5, §6, §7

Assay [6] deals with D1 receptor (Homo sapiens (Human), UniProt P21728). Description: [35S]GTPγS binding assay for D1 receptor. Type of assay: biochemical.
The target of assay [7] is T1, dopamine D2 receptor. Description: Radioligand binding assay, D2 receptor, HEK293T membrane homogenates. Details: D2 Inhibition (%): concentration or dose not given beside the values. Particulars: HEK293T membranes, [3H]Spiperone. The protocol: (§8) The affinity of compounds to D1 and D2 dopamine receptors were determined by competition binding assays. Membrane homogenates of HEK293T cells were stably transfected with D1, or D2 receptors. […] The reaction was started by addition of membranes ([…]) and stopped by rapid filtration through Whatman GF/B glassfiber filter and subsequently washed with cold buffer (50 mM Tris, 5 mM EDTA, pH 7.4) using a Brandel 24-well cell harvester. Scintillation cocktail was added and the radioactivity was determined in a MicroBeta liquid scintillation counter. The IC50 and Ki values were calculated by nonlinear regression (PRISM, Graphpad, San Diego, Calif.) using a sigmoidal function.

Assay [8] has as its target D1 dopamine receptors (Homo sapiens (Human), UniProt P21728). Description: Radioligand binding assay, D1 receptor, HEK293T membrane homogenates. The note with it: HEK293T membranes, [3H]SCH23390. The protocol: as §8

As usually defined, the IC50 is the point on the concentration scale where inhibition reaches its midpoint. Broadly, the Ki is a measure of affinity in units of concentration, obtained from inhibition or displacement.

T1 sequence (P14416 whole entry, species assumed): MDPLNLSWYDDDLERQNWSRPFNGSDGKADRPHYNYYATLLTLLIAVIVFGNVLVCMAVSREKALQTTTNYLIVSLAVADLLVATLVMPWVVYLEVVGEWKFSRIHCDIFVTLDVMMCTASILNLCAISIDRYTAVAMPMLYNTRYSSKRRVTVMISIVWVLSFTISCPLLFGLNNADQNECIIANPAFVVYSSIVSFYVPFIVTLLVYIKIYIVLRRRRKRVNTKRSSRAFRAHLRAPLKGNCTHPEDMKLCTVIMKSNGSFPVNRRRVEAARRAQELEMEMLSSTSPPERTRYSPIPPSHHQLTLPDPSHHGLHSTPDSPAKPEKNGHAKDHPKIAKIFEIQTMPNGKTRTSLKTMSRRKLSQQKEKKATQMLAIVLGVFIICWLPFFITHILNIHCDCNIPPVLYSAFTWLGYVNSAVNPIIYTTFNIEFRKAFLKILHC
D1 receptor, sequence (P21728 whole entry): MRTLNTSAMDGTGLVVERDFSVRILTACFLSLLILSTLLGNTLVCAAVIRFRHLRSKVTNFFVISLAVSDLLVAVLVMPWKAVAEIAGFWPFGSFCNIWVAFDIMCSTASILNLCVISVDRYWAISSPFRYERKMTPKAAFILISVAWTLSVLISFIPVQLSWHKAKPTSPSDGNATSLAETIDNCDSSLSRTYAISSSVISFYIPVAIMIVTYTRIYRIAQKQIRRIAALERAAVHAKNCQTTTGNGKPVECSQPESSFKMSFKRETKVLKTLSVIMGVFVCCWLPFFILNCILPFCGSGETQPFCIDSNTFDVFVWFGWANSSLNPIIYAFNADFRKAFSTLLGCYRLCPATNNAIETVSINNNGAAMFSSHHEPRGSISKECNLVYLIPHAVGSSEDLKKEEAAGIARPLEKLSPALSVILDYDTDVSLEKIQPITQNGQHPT
5-HT1A receptor, sequence (P08908 whole entry): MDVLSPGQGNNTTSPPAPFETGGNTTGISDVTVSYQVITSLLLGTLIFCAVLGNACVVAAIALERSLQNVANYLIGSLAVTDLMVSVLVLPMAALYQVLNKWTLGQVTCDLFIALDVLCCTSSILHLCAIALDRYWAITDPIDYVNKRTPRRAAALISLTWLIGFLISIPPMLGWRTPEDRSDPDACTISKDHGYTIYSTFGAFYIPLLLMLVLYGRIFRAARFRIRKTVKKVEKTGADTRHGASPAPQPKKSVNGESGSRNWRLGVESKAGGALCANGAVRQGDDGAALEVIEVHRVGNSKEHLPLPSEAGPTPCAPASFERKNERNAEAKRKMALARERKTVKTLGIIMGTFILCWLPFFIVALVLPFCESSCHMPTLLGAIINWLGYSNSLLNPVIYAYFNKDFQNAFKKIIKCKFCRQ
D2 dopamine receptor, sequence (P61169 whole entry): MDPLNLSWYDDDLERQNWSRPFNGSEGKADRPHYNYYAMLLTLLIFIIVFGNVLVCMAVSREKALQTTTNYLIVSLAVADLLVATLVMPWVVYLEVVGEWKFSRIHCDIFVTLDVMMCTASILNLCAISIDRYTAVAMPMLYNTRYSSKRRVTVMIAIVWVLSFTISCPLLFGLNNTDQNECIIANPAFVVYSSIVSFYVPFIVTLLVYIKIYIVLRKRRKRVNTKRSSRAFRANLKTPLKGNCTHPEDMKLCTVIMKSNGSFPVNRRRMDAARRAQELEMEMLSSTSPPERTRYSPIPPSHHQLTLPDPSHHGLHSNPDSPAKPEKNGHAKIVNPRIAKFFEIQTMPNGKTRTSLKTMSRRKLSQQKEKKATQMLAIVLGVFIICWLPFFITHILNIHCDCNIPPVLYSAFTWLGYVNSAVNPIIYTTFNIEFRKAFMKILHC
dopamine D1 receptor, sequence (O77680 whole entry): as the sequence (P21728 whole entry) above, with N311I counted along it
D1 dopamine receptors, sequence (P21728 whole entry): as the sequence (P21728 whole entry) above
5-HT2A receptor, sequence (P28223 whole entry): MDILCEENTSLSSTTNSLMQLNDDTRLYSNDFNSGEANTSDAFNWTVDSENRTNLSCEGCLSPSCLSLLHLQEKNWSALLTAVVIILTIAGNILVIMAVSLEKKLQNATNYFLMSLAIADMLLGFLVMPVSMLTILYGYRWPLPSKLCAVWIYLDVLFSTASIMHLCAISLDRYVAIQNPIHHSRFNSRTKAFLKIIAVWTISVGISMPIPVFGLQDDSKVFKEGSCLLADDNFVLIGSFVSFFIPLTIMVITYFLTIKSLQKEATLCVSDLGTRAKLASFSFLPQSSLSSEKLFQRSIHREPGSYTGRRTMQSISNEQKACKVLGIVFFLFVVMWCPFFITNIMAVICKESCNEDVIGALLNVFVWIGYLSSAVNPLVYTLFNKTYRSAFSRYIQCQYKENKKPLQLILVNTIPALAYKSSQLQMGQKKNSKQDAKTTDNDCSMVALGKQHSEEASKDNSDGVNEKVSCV

With `COc1cc2c(cc1OC)C1Cc3c(OC)ccc(OC)c3CN1CC2` (racemic) [DC037003, (±)-2,3,9,12-tetramethoxy-5,8,13,13a-tetrahydro-6H-dibenzo[a,g]quinolizine], the IC50 in assay [1] came out at 3.3 µM. In assay [2], the “D2 receptor inhibition ratio (%)” value is 75.75%. Besides, in assay [3], the “D1 receptor inhibition ratio (%)” value is on record as 98.0%, the IC50 came to 370 nM and the Ki stood at 247 nM.
In the case of `COc1cc2c(cc1OC)[C@@H]1Cc3c(OC)ccc(OC)c3CN1CC2` [DC037008, S-(−)-2,3,9,12-tetramethoxy-5,8,13,13a-tetrahydro-6H-dibenzo[a,g]quinolizine], the IC50 in assay [1] is 4.03 µM. Further, in assay [2], the “D2 receptor inhibition ratio (%)” value came to 92.8%, the IC50 came to 1730 nM and the Ki amounted to 334 nM. In addition, in assay [3], the “D1 receptor inhibition ratio (%)” value was found to be 101.0%, the IC50 stood at 101 nM and the Ki was found to be 50.1 nM.
`COc1ccc(OC)c2c1C[C@H]1c3cc4c(cc3CCN1C2)OCCO4` [DC037032]: in assay [2], the “D2 receptor inhibition ratio (%)” value was 28.67% and the “affinity on dopamine D2 receptor (in words)” value is recorded as “strong affinity”. In assay [4], the “5-HT1A receptor inhibition ratio (%)” value is 95.36%; the IC50 came out at 51.5 nM; the affinity, expressed as Ki, was 40.6 nM. Further, in assay [3], the “D1 receptor inhibition ratio (%)” value is 99.21%, the IC50 came out at 49.2 nM, the Ki was 25.2 nM and the “affinity on dopamine D1 receptor (in words)” value was “strong affinity”. Besides, the “5-HT2A receptor inhibition ratio (%)” value in assay [5] came out at 37.75%.
`COc1cc2c(cc1OC)C1Cc3cc(C)cc(C)c3CN1CC2` (racemic) [DC037018, (±)-2,3-bimethoxy-9,11-dimethyl-5,8,13,13a-tetrahydro-6H-dibenzo[a,g]quinolizine]: the IC50 in assay [1] turned out to be 15.6 µM. Moreover, in assay [2], the “D2 receptor inhibition ratio (%)” value came to 77.4%. Moreover, in assay [3], the “D1 receptor inhibition ratio (%)” value is recorded as 82.5%, the half-maximal inhibitory concentration (IC50) is 2920 nM and the Ki amounted to 1440 nM.
In the case of `COc1cc2c(c(OC)c1)CN1CCc3cc(OC)c(O)cc3[C@@H]1C2` [DC037079, (S)-2-hydroxy-3,9,11-trimethoxy-5,8,13,13a-tetrahydro-6H-dibenzo-[a,g]quinolizine], in assay [6] ([35S]GTPγS binding), the “D1 antagonist Imax %” value is 94.2 ± 1.5%. Also, in assay [6] ([35S]GTPγS binding, read-out: D1 antagonist IC50), the IC50 worked out at 1400 ± 200 nM. In addition, in assay [6] (summary of Table 10), the “D1 receptor antagonistic activity (in words)” value is given as “D1 receptor antagonistic activity” and the “D1 receptor selectivity (in words)” value was “good D1 receptor selectivity”. For the same compound, the “D2 Inhibition (%)” value in assay [7] is recorded as 83.31%. Also, in assay [2], the “D2 receptor inhibition ratio (%)” value came to 76.21% and the “affinity on dopamine D2 receptor (in words)” value was “strong affinity”. In assay [8], the affinity, expressed as Ki, was 2.53 ± 0.16 nM. In assay [3], the “D1 receptor inhibition ratio (%)” value came out at 99.99%, the IC50 is 9.85 nM, the Ki was 5.18 nM and the “affinity on dopamine D1 receptor (in words)” value is listed as “strong affinity”.
As for `COc1cc2c(cc1OC)[C@@H]1Cc3cc(C)cc(C)c3CN1CC2` [DC037017, S-(−)-2,3-bimethoxy-9,11-dimethyl-5,8,13,13a-tetrahydro-6H-dibenzo[a,g]quinolizine], the IC50 in assay [1] is 16.2 µM. Also, in assay [2], the “D2 receptor inhibition ratio (%)” value is given as 97.4%, the IC50 was 1160 nM and the Ki turned out to be 224 nM. For the same compound, in assay [3], the “D1 receptor inhibition ratio (%)” value was 94.5%, the IC50 is 684 nM and the Ki was found to be 338 nM.
With `COc1cc2c(cc1OC)CN1CCc3cc(O)c(O)cc3C1C2` (racemic) [DC037024, (±)-2,3-bihydroxy-10,11-bimethoxy-5,8,13,13a-tetrahydro-6H-dibenzo[a,g]quinolizine], in assay [1], the half-maximal inhibitory concentration (IC50) turned out to be 0.591 µM. In assay [2], the “D2 receptor inhibition ratio (%)” value was determined as 76.2%. Further, in assay [3], the “D1 receptor inhibition ratio (%)” value amounted to 91.3%, the concentration for half-maximal inhibition (IC50) came out at 1500 nM and the inhibition constant Ki worked out at 741 nM.
